From patent EP4684782A1, “COSMETIC COMPOSITION FOR ANTIOXIDATION” (LG Chem, Ltd., priority 2023, dated 2025)
Values joined by “and” are separate entries in the source; they are usually repeats but may differ in a detail not shown here. Equal values may be shown once.

Key:
[1] = DPPH radical scavenging ability (antioxidant power), absorbance at 520 nm; type: biochemical; conditions: for Antioxidant power, Average: average of three measurements, 30 min; for Antioxidant power: single measurements (Once, Two times, Three times), 0.5 mM DPPH, room temperature, 30 minutes
Protocol: The DPPH radical expresses a dark purple color. The DPPH radical is reduced by the antioxidant effective ingredient, and the dark purple color is discolored. The performance of the antioxidant effective ingredient can be measured using such characteristics.
The 3HP aqueous solution obtained from Preparation Example 1 was prepared at five different concentrations (0 wt.%, 1 wt.%, 5 wt.%, 10 wt.%, 70 wt.%), 50 µℓ of each 3HP aqueous solution and 150 µℓ of methanol were dispensed into a 96-well plate and reacted at room temperature for 30 minutes. The absorbance (ODcontrol group, wavelength 520 nm) was repeatedly measured three times.
A DPPH aqueous solution containing 0.5 mM DPPH (free radical, 95%, Alfa Aesar) was prepared. 50 µℓ of methanol and 150 µℓ of the DPPH aqueous solution were dispensed into a 96-well plate and reacted at room temperature for 30 minutes. The absorbance (ODnegative control group, wavelength 520 nm) was repeatedly measured three times.
A DPPH aqueous solution containing 0.5 mM DPPH (free radical, 95%, Alfa Aesar) was prepared. The 3HP aqueous solution obtained from Preparation Example 1 was prepared at five different concentrations (0 wt.%, 1 wt.%, 5 wt.%, 10 wt.%, 70 wt.%), and 50 µℓ of each 3HP aqueous solution and 150 µℓ of the DPPH aqueous solution were dispensed into a 96-well plate and reacted at room temperature for 30 minutes. The absorbance (ODexperimental group, wavelength 520 nm) was repeatedly measured three times.
The absorbance at a wavelength of 520 nm was measured using a micro reader.
The DPPH radical scavenging ability (antioxidant power) of 3HP was calculated according to the following Equation 1, and the results are shown in Tables below. [formula]

human skin tissues = assay: Skin tissue cell stability experiment (explant tissue culture, HE staining); type: cell-based; conditions: 3HP applied at concentrations of 1%, 5%, and 10%, tissues obtained 24 hours after application, FIG. 1
Protocol: The human skin tissues provided for research purposes (IRB No. 4-2023-0054; Institutional Review Board, Severance Medical Center, Yonsei University College of Medicine) was defatted, and washed several times with PBS (phosphate buffered saline; Lonza) to remove residual impurities. The skin tissues were prepared into a size of 1 cm × 1 cm for each test group, and the test composition was applied to the prepared skin tissues, and PBS was applied to the negative control. The skin tissues in which the absorption of the test composition has been completed were cultured in a special medium at 37°C, 5% CO2.
Tissues obtained 24 hours after application of the test composition were fixed with 10% formalin, and then paraffin blocks and paraffin-embedded slides were prepared. The deparaffinized tissues were stained for nuclei with hematoxylin (S3309; dako) solution, and then washed in running water. The cytoplasm was stained with eosin (318906; sigma) solution, and then the tissues were completely dehydrated through washing process and fixed using a mounting solution. The epidermis and papillary dermis of the fixed tissues were photographed at 400x magnification using an optical microscope (BX43F; OLYMPUS).

O=C(O)CCO [Example 3HP, 3-hydroxypropionic acid]
Antioxidant power, Average ([1]; 3HP treated concentration 1 %): 0.904% | Antioxidant power ([1]; 3HP treated concentration 1 %): 0.850% and 1.042% and 0.819% | Antioxidant power, Average ([1]; 3HP treated concentration 5%): 2.474% | Antioxidant power ([1]; 3HP treated concentration 5%): 2.452% and 2.552% and 2.419% | Antioxidant power, Average ([1]; 3HP treated concentration 10 %): 5.175% | Antioxidant power ([1]; 3HP treated concentration 10 %): 5.209% and 5.205% and 5.111% | Antioxidant power, Average ([1]; 3HP treated concentration 70 %): 21.011% | Antioxidant power ([1]; 3HP treated concentration 70 %): 20.888% and 21.142% and 21.002% | DPPH radical scavenging ability ([1]; under the treatment concentrations tested (1, 5, 10, 70 wt.%), result in words): significant DPPH radical scavenging ability was exhibited | damage to the epidermis and dermis or separation between tissues (human skin tissues): no damage to the epidermis and dermis or separation between tissues were observed
